# Counter-ions that a name gives are not always drawn.
# Tests used:
# NK2 receptor = target: T1, NK2 receptor (Oryctolagus cuniculus, UniProt P79218); assay: Bio assay on isolated smooth muscle: rabbit pulmonary artery without endothelium; format: cell-based; conditions: antagonistic power, read-out: pA2 NK2 (converted)
# T1 construct: three smooth muscle preparations were used; from tissue; host or cells: rabbit pulmonary artery without endothelium (isolated smooth muscle)
# T1 sequence (P79218 1-384): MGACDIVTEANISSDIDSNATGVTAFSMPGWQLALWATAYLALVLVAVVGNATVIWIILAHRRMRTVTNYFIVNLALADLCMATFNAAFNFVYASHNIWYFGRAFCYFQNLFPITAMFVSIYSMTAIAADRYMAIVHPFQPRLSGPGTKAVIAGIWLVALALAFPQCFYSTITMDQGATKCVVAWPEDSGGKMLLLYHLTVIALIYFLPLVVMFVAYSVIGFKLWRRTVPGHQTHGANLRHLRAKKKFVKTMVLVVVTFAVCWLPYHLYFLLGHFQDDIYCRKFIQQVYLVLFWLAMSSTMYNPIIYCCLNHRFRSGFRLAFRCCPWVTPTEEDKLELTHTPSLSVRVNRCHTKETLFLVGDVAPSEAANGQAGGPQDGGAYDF
# Experimental: (§1) In order to evaluate the neurokinin antagonistic potential of the compounds of the invention, three smooth muscle preparations were used. Each of these preparations, described as having a good specificity for one type of receptor for neurokinins, was carried out conforming to the following techniques described in the literature:
# rabbit pulmonary artery without endothelium for the study of the NK2 receptor according to D. REGOLI et al. (European J. Pharmacol. 125, 37-44, 1985);
# (§2) The antagonistic power of the compounds of the invention is expressed in the form of pA2 as defined by O. ARUNLAKSHANA and H. O. SCHILD (Brit. J. Pharmacol., 14, 48-58, 1959).
# NK3 receptor = target: T2, NK3 receptor (Rattus norvegicus, UniProt P16177); assay: Bio assay on isolated smooth muscle: rat portal vein; format: cell-based; conditions: antagonistic power, read-out: pA2 NK3 (converted)
# T2 construct: three smooth muscle preparations were used; from tissue; host or cells: rat portal vein (isolated smooth muscle)
# T2 sequence (P16177 1-452): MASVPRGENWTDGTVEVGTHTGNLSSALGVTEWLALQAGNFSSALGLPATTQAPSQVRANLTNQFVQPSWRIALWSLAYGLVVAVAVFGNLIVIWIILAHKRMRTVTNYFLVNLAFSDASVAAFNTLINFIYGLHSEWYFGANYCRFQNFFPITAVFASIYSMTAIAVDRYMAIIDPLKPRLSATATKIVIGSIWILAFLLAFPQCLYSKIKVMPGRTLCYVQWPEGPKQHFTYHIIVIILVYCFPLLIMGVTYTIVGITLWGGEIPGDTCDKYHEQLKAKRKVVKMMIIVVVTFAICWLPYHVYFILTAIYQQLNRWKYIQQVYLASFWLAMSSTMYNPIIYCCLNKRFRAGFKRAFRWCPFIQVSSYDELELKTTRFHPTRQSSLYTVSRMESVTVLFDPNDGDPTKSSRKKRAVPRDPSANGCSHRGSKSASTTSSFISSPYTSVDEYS
# Experimental: as §1
# rat portal vein for the study of the NK3 receptor according to D. REGOLI et al. (European J. Pharmacol. 134, 321-326, 1986).
# as §2
# NK1 receptor = format: cell-based, rabbit; conditions: for pA2 NK1: antagonistic power, rabbit vena cava
# Experimental: as §1
# rabbit vena cava for the study of the NK1 receptor according to D. REGOLI et al. (J. Cardiovasc. Pharmacol., in press);
# as §2
# mouse = assay: Eddy test in the mouse (thermal hyperalgesia, hot plate 55° C.); format: in vivo; conditions: dose increasing the reaction time by 50%; i.v. 5 minutes before heating plate; CD1 male mice
# Experimental: This test consists in measuring the reaction time to heat determined by licking of the forepaws in a mouse (CD1 male, Ch. River, 25-30 g) placed on a metal plate heated to 55° C.
# The animals were treated intravenously with the compounds of the invention 5 minutes before passing onto the heating plate.
# The mean of the reaction times obtained for each batch treated (12 mice per batch) was compared with the mean of the corresponding control batch.
Molecule,Kb (NK2 receptor) [µM],Kb (NK3 receptor) [µM],pA2 NK1 (NK1 receptor),Eddy test in the mouse ED50 (mouse) [mg/kg i.v.],"antagonistic activity with respect to NK1 receptors, compared with NK2 and NK3 (in words) (NK1 receptor; isolated smooth muscle preparations)"
"CN(Cc1ccccc1)C(=O)[C@H](Cc1ccccc1)NC(=O)[C@@H](Cc1cn(C=O)c2ccccc12)NC(=O)C[C@@H]1NC(=O)[C@@H]2C3CCC(CC3)N2C1=O [Example 1, Cyclo(Abo--Asp)--trp(CHO)--Phe--N(CH3)CH2 C6 H5]",13.8,13.8,–,–,–
"CN(Cc1ccccc1)C(=O)[C@H](Cc1ccccc1)NC(=O)[C@@H](Cc1cn(C=O)c2ccccc12)NC(=O)C[C@H]1NC(=O)[C@H]2C3CCC(CC3)N2C1=O [Example 5, Cyclo(abo--asp)--trp(CHO)--Phe--N(CH3)CH2 C6 H5]",2,13.8,–,–,–
"CN(Cc1ccccc1)C(=O)[C@H](Cc1ccccc1)NC(=O)[C@@H](Cc1cn(C=O)c2ccccc12)NC(=O)C[C@H]1NC(=O)[C@@H]2Cc3ccccc3CN2C1=O [Example 6, Cyclo(Tic--asp)--trp(CHO)--Phe--N(CH3)CH2 C6 H5]",> 6.76,13.5,6.87,–,–
"CN(Cc1ccccc1)C(=O)[C@H](Cc1ccccc1)NC(=O)[C@@H](Cc1cn(C=O)c2ccccc12)NC(=O)C[C@@H]1NC(=O)[C@H](Cc2ccccc2)N(C)C1=O [Example 7, Cyclo(MePhe--Asp)--trp(CHO)--Phe--N(CH3)CH2 C6 H5]",13.5,13.5,6.87,–,–
"CN(Cc1ccccc1)C(=O)[C@H](Cc1ccccc1)NC(=O)[C@@H](Cc1c[nH]c2ccccc12)NC(=O)C[C@@H]1NC(=O)[C@@H]2C3CCC(CC3)N2C1=O [Example 9, Cyclo(Abo--Asp)--trp--Phe--N(CH3)CH2 C6 H5]",1,–,–,–,–
"CN(Cc1ccccc1)C(=O)[C@H](Cc1ccccc1)NC(=O)C[C@@H]1NC(=O)[C@@H]2Cc3ccccc3CN2C1=O [Example 16, Cyclo(Tic--Asp)--Phe--N(CH3)CH2 C6 H5]",19.1,19.1,6.02,–,–
"CN(Cc1ccccc1)C(=O)[C@H](Cc1ccccc1)NC(=O)[C@@H]1C2CCC(CC2)N1C(=O)c1c[nH]c2ccccc12 [Example 31, (indol-3-yl) carbonyl--Abo--Phe--N(CH3)CH2 C6 H5]",13.8,9.12,7.34,–,–
"CN(Cc1ccccc1)C(=O)[C@H](Cc1ccccc1)NC(=O)[C@@H](Cc1cn(C(=O)CCCCCCN)c2ccccc12)NC(=O)C[C@@H]1NC(=O)[C@@H]2C3CCC(CC3)N2C1=O [Example 38, Cyclo(Abo--Asp)--trp(CO(CH2)6 NH2, HCl)--Phe--N(CH3)CH2 C6 H5]",–,–,6.70,–,–
CN1CC[C@]23c4c5ccc(O)c4O[C@H]2[C@@H](O)C=C[C@H]3[C@H]1C5 [morphine],–,–,–,0.5,–
Cyclo(Tic--asp)--.PSI.(CH2 S)--Phe--N(CH3)CH2 C6 H5 [Example 24],–,–,–,–,more particularly the case
